In brackets after ≈: the same amount, converted by molar mass. Like-named read-outs stand apart in the source and are kept apart here. Numbered stars: 1 amine (or outer) side, 2 acyl side, 3 side chain; on linkers, the order of the positions; unused ones are H or OH. Bridge positions count the residues as written; N and C are the ends. Square brackets hold non-standard residues; d marks the D form. Peptide text beside a SMILES is read from it. ξ: configuration not given here. ξAsn(3ξ-OH) = NC(=O)C(O)C(N)C(=O)O; X1 = CC(C)CCCC(CC(=O)[*:1])O[*:2]; NMeF = CN[CH](Cc1ccccc1)C(=O)O; NMeV = CN[CH](C(=O)O)C(C)C; Orn = NCCC[CH](N)C(=O)O
Assays:
[1] = test system: methicillin-resistant Staphylococcus aureus (MRSA) on the skin; test: Efficacy evaluation test by single dose topical application in murine MRSA skin infection model; assay type: in vivo, mice; conditions: preliminary test
[2] = test system: Bacillus anthracis
[3] = test system: MRSA; test: Additional cross MIC test using 5% FBS-added CAMHB, with FIC index; conditions: concentration of each component in the combination
[4] = test system: Propionibacterium acnes; test: Number of cells after 48 hour anaerobic incubation in 5% FBS-supplemented GAM medium; assay type: cell-based; conditions: lotilibcin 0.1 μg/mL alone, initial 2.8 × 10^6
[5] = test system: MRSA
[6] = test system: MRSA Used in Animal Model; test: microbe, parasite or virus in culture; conditions: Staphylococcus aureus
[7] = test system: clinically isolated MRSA strain; test: microbe, parasite or virus in culture; conditions: Staphylococcus aureus, read-out: anti-MRSA activity (MIC) of boric acid alone
[8] = test system: MRSA; test: microbe, parasite or virus in culture; conditions: Staphylococcus aureus, read-out: MIC in the presence of 5% FBS, Anti-MRSA activity of 3rd generation
[9] = test system: MRSA; conditions: CAMHB with 5% FBS
[10] = test system: Propionibacterium acnes; test: microbe, parasite or virus in culture; conditions: Cutibacterium acnes, read-out: antibacterial activity (MIC) of boric acid alone
[11] = read-out: Minimum Inhibitory Concentration Against MRSA Used in Animal Model (MIC), CAMHB, no 5% FBS
[12] = read-out: Minimum Inhibitory Concentration Against MRSA Used in Animal Model (MIC), CAMHB, with 5% FBS

Row | SMILES | antibacterial efficacy (change in number of CFUs in skin tissue) ([1]; 0.5% lotilibcin alone, single topical dose) | antibacterial efficacy (change in number of CFUs in skin tissue) ([1]; lotilibcin alone 0.02%, 0.2%, 0.5%, single topical dose, 24 hours) | Antibacterial activity of lotilibcin (MIC) ([2]; No serum) [µg/mL] | Antibacterial activity of lotilibcin (MIC) ([2]; With serum (5% FBS)) [µg/mL] | point of synergy (concentration) in table 7 [3] [µg/mL] | Number of cells After 48 hours [4] | MIC in the presence of 5% FBS, Anti-MRSA activity of 1st generation ([5]; 1st generation bacteria) [µg/mL] | MIC in the presence of 5% FBS, Anti-MRSA activity of 3rd generation ([5]; 3rd generation bacteria, test substance alone) [µg/mL] | MIC [6, 11] [µg/mL] | MIC [6, 12] [µg/mL] | MIC ([6]; read-out: concentration exhibiting antibacterial activity (MIC), used solely, not influenced by presence or absence of serum component (FBS)) [µg/mL] | MIC [7] [µg/mL] | change in the number of cells (CFUs in skin tissue) ([1]; 1% boric acid alone, single topical dose) | antibacterial efficacy in animal infection models ([1]; boric acid alone 0.1% to 1%) | MIC [8] [µg/mL] | minimum concentration of boric acid necessary for enhancing the anti-MRSA activity of lotilibcin [9] [µg/mL] | MIC [10] [µg/mL]
1 | CC(C)CCCC1CC(=O)NC(CO)C(=O)NC(C(O)C(N)=O)C(=O)NC(CO)C(=O)NCC(=O)N(C)C(Cc2ccccc2)C(=O)NC(CC(C)C)C(=O)NC(CCCN)C(=O)NC(CCC(=O)O)C(=O)NC(CC(N)=O)C(=O)NC(Cc2c[nH]c3ccccc23)C(=O)NC(CCCN)C(=O)N(C)C(C(C)C)C(=O)O1 (centres unmarked) [Lotilibcin, lotilibcin] (S[ξAsn(3ξ-OH)]SG[NMeF]L[Orn]ENW[Orn][NMeV]; linker N-C via X1; configuration not given here) | comparable to that of 2% mupirocin | dose-dependent efficacy | 1.0 | 0.1 | 0.03 | 1.3 × 10^6 CFU/mL | 0.25 | 32 |  |  |  |  |  |  |  |  | 
2 | C/C(=C\C(=O)OCCCCCCCCC(=O)O)C[C@@H]1OC[C@H](C[C@@H]2O[C@H]2[C@@H](C)[C@H](C)O)[C@@H](O)[C@H]1O [Mupirocin, mupirocin] |  |  |  |  |  |  |  |  | 0.125 (≈ 0.00025 mM) | 0.5 (≈ 0.000999 mM) |  |  |  |  |  |  | 
3 | OB(O)O [Boric acid] |  |  |  |  | 313 |  |  |  | 2500 (≈ 40.4 mM) | 2500 (≈ 40.4 mM) | 2500 (≈ 40.4 mM) | 2500 (≈ 40.4 mM) | on the same level as or worse than the result of the negative control | no antibacterial efficacy | 5000 | 100 | 1250 (≈ 20.2 mM)

From patent US20210244790A1 (priority 2018, published 2021)
